Assay results published in patent US6100377A, “Constrained peptides” (The Trustees of the University of Pennsylvania, priority 1994, dated 2000).
Bridge positions count the residues as written; N and C are the ends. Ends that are not written are not given here. Peptide text beside a SMILES is read from it.

Assays:
CD4+ T cells = test: Blocking of T cell activation by tetanus toxoid (3H-TdR incorporation); assay type: cell-based; set-up: dose or concentration left out as unconfirmed; settings: 10^4 T cells + tetanus toxoid, 48 hours
Procedure: 10^4 blood monocytes were pulsed with […] of tetanus toxoid for
hours. 10^4 CD4+ T cells were added with the compounds […] in
a final volume of […] of media. The cells were pulsed with […]
HTdR and assayed at 48 hours.

[1] = biological target: T1, F1-gp120 binding to CD4+ human cells (Human immunodeficiency virus type 1 group M subtype B, UniProt P04578); test: Inhibition of fluoresceinated gp120 binding to CD4+ cells (flow microfluorimetry); settings: compound 1 mg
T1 construct: Recombinant gp-120 was obtained from Raymond Sweet at Smith Kline Beecham and directly fluoresceinated; purchased Raymond Sweet at Smith Kline Beecham (obtained, not a catalogue product); host or cells: CD4+ human cells (Jurkat CD4+)
Procedure: This assay uses fluoresceinated gp120 and monitors its ability to bind to CD4+.
Recombinant gp-120 was obtained from Raymond Sweet at Smith Kline Beecham and directly fluoresceinated. Flow microfluorimetry was performed using a FACScan. Chen, et al., (1992) Proc. Nat'l. Acad. Sci. U.S.A., 89:5872-5876; Weiner, et al., (1990) Cancer Detection and Prevention, 14:317-320; and Weiner, et al., (1990) Vaccines, 339-345, discloses the assay was done using the CD4 related synthetic compounds or, separately, monoclonal anti-CD4 antibody as described.

[2] = test system: ABA delayed type hypersensitivity; test: In vivo inflammation: delayed type hypersensitivity to azobenzenearsonate (ABA); set-up: species or system mouse; settings: 100 μg total dose
Procedure: The effects of macrocyclics on in vivo inflammation were examined as follows. The effects of cyclic compounds disclosed in Table I on in vivo inflammatory response to Azobenzenearsonate was performed using treated groups of ABA primed normal Balb/c or Va3.1 transgenic mice with either 1) intravenously administered anti-CD4 monoclonal antibodies, 2) intravenously administered anti-class II antibodies, 3) systemically administered soluble forms of the most efficacious constrained macrocyclics 4) intravenously administered ABA coupled mononuclear cells, and 5) control antibodies and control macrocyclics. […]
The delayed type hypersensitivity assay is performed as follows. Five days after priming a mouse with hapten coupled cells, the hind left footpad is measured using an engineer's caliper (Fowler). […] Twenty four hours later, the degree of swelling is measured in the footpad. […]
For priming, mice (normal or transgenic with a T-cell receptor that recognizes ABA) are injected subcutaneously in each flank using a 23 g needle with 0.1 ml of ABA- or TNP-coupled spleen cells (3×10^7).Five days later, ear thickness and footpad thickness is measured with a caliper. […] Twenty four hours after challenge, the ears and footpads are measured and the animals sacrificed by cervical dislocation. […]

HIV-1MN = test: Syncytium assay, HIV; assay type: cell-based; settings: for syncytia: none 100
Procedure: Chen, et al., (1992) Proc. Nat'l. Acad. Sci. U.S.A., 89:5872-5876; Weiner, et al. (1990) Cancer Detection and Prevention, 14:317-320, discloses Sup T1 cells are used as target cells because of their rapid and high degree of fusion when co-cultured with HIV-1 producing cell lines. Uninfected target cells were assayed by co-culture with HIV-infected cells (H9/IIIB.) Washed, HIV-infected cells are plated in 96-well plates (10^4 cells/well in RPMI 1640+10% FCS) and incubated for 30 min at 37° C. Target cells are then added at 5×10^5 /well and the number of syncytia is qualitatively determined after a 48-hour incubation period. CD4 forms to be tested are added at time 0 or 24 hours after the assay has been initiated. Graded doses are used, controls including random linear peptides are also added independently. sCD4 and antibodies to CD4 are used as positive controls.
Another neutralization assay which is used in the field is as follows. One hundred TCID50 of HIV-1/IIIB or HIV-1/MN cell-free virus is preincubated with serial dilutions of compounds for 1 hour at 37° C. Following incubation, the pretreated virus was then plated on 4×10^4 MT-2 target cells, for 1 hour at 37° C. The MT-2 cells were then washed 3 times and incubated at 37° C. with 5% CO2. Fusion was evaluated 3 days later quantitatively by counting the number of syncytia per well in triplicate under a phase contrast microscope. The neutralization value (the ability of a compound to inhibit HIV infection 0 Vn/Vo) is calculated by dividing the mean number of syncytia per well following treatment with specific antiserum by the mean number of syncytia per well without antiserum (see: Montefiori, et al., (1988) J. Clin. Microbiol., 26:231-235).

sCD4 binding to DRb2 = biological target: T2, sCD4 binding to DRb2 (Homo sapiens, UniProt P01911); test: CD4 receptor-DRb2 blocking: 125I-sCD4 binding to immobilized DRb2 peptide
T2 construct: made in house
Procedure: The peptidic fragment is first coupled to activated sepharose 4B (0.5 mg of peptide/ml of beads).
75 μg of the recombinant soluble CD4 was labelled with 2 mCi of Bolotn Hunter reagent (Dupont/New England Nuclear) in 100 mM sodium borate, pH 8.5, in a volume of 150 μl. The labelled CD4 was separated from the unconjugated reagent on a G-50 Sephadex column containing PBS/0.1% gelatin and stored at -70° C.
HPLC purified forms of the DRb2 peptide were prepared. The peptide ([…] in 0.1M ammonium bicarbonate, pH 7.8) was immobilized on Falcon microtiter plates by overnight exposure. After washing several times and blocking with 2% BSA in HBSS pH 7.6 for 2 hours we add […] of ^125 I labelled sCD4. After 1 hour at room temperature the wells are washed 5× and the radioactivity counted.

[3] = test system: responder CD4+ T cells + allogeneic cells; test: Blocking of the mixed lymphocyte response; assay type: cell-based, human; settings: .1 mg printed in table line
Procedure: Responder purified CD4+ T cells were used in a mixed lymphocyte response against completely allogeneic human cells. The compounds were added at 10 μg/ml final concentration. The number of responder cells was 10^5 and the number of stimulators 4×10^5 cells per well.

With `CC(C)C[C@@H]1NC(=O)[C@H](Cc2ccccc2)NC(=O)[C@H](CO)NC(=O)CNC(=O)[C@H](CCC(N)=O)NC(=O)[C@H](CC(N)=O)NC(=O)[C@@H](NC(=O)[C@@H](N)Cc2ccc(O)cc2)CSSC[C@@H](C(=O)N[C@@H](Cc2ccc(O)cc2)C(=O)O)NC1=O` [SEQ ID NO:1, Y, C, N, Q, G, S, F, L, C, Y] (H-YCNQGSFLCY-OH; disulfide 2-9) the “% response” value (CD4+ T cells) was 77% and the “% Inhibition” value [1] was 33%.

`C[C@@H](O)[C@@H]1NC(=O)[C@@H](NC(=O)[C@@H](N)Cc2ccccc2)CSSC[C@@H](C(=O)N[C@@H](Cc2ccc(O)cc2)C(=O)O)NC(=O)[C@H](CCCCN)NC(=O)[C@H](CO)NC(=O)[C@@H]2CCCN2C(=O)CNC(=O)[C@H](CCCCN)NC1=O` [SEQ ID NO:3, F, C, T, K, G, P, S, K, C, Y] (H-FCTKGPSKCY-OH; disulfide 2-9) was tested, and the “% Inhibition” value [1] was 83%.

In the case of `CC(C)[C@@H]1NC(=O)[C@H](CCC(=O)O)NC(=O)[C@@H](NC(=O)[C@@H](N)Cc2ccccc2)CSSC[C@@H](C(=O)N[C@@H](Cc2ccc(O)cc2)C(=O)O)NC(=O)[C@H](CCC(=O)O)NC(=O)[C@H](CCCCN)NC(=O)[C@H](CCC(N)=O)NC(=O)[C@H](CC(=O)O)NC(=O)[C@H](CCC(=O)O)NC1=O` [SEQ ID NO:8, F, C, E, V, E, D, Q, K, E, C, Y] (H-FCEVEDQKECY-OH; disulfide 2-10), the “% Inhibition” value [1] is reported as 83%.

For `CC(C)C[C@@H]1NC(=O)[C@@H](NC(=O)[C@@H](N)Cc2ccccc2)CSSC[C@@H](C(=O)N[C@@H](Cc2ccc(O)cc2)C(=O)O)NC(=O)[C@H](CC(C)C)NC(=O)[C@H](C(C)C)NC(=O)[C@H](CCC(N)=O)NC(=O)CNC(=O)[C@H](CO)NC(=O)[C@H](CC(=O)O)NC(=O)[C@H](CO)NC1=O` [SEQ ID NO:9, F, C, L, S, D, S, G, Q, V, L, C, Y] (H-FCLSDSGQVLCY-OH; disulfide 2-11), the “% response” value (CD4+ T cells) was 100% and the “% Inhibition” value [1] was 8%.

With “CDR2R: macrocyclic compound modeled to bind to the reovirus receptor on activated T cells; probably SEQ ID NO:10 (FKTNKCIYSGSTCQF; disulfide 6-13 (inferred))” the “reducing in vivo delayed type hypersensitivity to ABA” value [2] was “efficacious”.

“F, C, Y, I, C, E, V, E, D, Q, C, Y (FCYICEVEDQCY; also: cyclized, ring type and places not given here) [SEQ ID NO:7, CD4, 84-91 cyclized, CDR3-like, Human]” was tested, and the “% response” value (CD4+ T cells) was 55%, the “3H-TdR incorporation (cpm)” value (CD4+ T cells; none 45,090 cpm) was 25,000 cpm and the “% protection from syncytia” value (HIV-1MN; 6.125 μg) was 48%. The syncytia (HIV-1MN; 6.125 μg) was 35, the “% protection from syncytia” value (HIV-1MN; 12.5 μg) was 88% and the syncytia (HIV-1MN; 12.5 μg) was 15. The “% Inhibition” value [1] was 75%, the “Mean Channel Fluorescence” value ([1]; none 21, background 9) was 12 and the “% inhibition of sCD4 binding” value (sCD4 binding to DRb2; .1 mg compound, first experiment) was 48%. For the same molecule, the “Bound CD4 (cpm)” value (sCD4 binding to DRb2; .1 mg compound, first experiment (none 3600, no DRb2 1100)) was 2400 cpm, the “% inhibition of sCD4 binding” value (sCD4 binding to DRb2; .5 mg compound, first experiment) was 88% and the “Bound CD4 (cpm)” value (sCD4 binding to DRb2; .5 mg compound, first experiment (none 3600, no DRb2 1100)) was 1400 cpm. The “% inhibition of sCD4 binding” value (sCD4 binding to DRb2; Experiment 2, amount not given) was 100%, the “Bound CD4 (cpm)” value (sCD4 binding to DRb2; Experiment 2, amount not printed (none 2000, no DRb2 1100)) was 800 cpm and the “% inhibition of MLR” value [3] was 48%. For the same molecule, the “(cpm)” value ([3]; control 85,000) was 55,000 cpm.
